Patent US5358947A, “Angiotensin II receptor blocking 2,3-substituted pyrazolo[1,5-a]-1,3,5-triazin-4(3H)-ones” (American Cyanamid Company, priority 1993, dated 1994)
Several values for one entry are separate records, joined by “and”; a condition that tells them apart may be missing. Equal values may be shown once. Where a name gives a salt, the structure may show the parent alone.

System: ANGIOTENSIN II (AII) VASOPRESSOR RESPONSE
Experiment: AII Challenge: angiotensin II (AII) vasopressor response in conscious rats
Format: in vivo
Parameters: Response After AII / Change / Average Change: unit not given here
Conditions: 10 mg/kg i.v.; for Response After AII / Change / Control Before AII: individual rat; for Control Before AII: in mmHg (unit assumed); for % Inhibition / Average Change: n = 2
In short: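 Conscious male Okamoto-Aoki SHR (16-20 weeks, ~330 g), aorta/vena cava cannulated, challenged with AII 0.05 and 0.1 ug/kg i.v. before and at 30-300 min after compound dosed i.v., i.p. or orally. Systolic pressure rise expressed relative to each rat's predose response (100%).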

[1] = AII 0.05 mcg/kg, 30 min post dose
[2] = AII 0.05 mcg/kg, 30 min post dose, listed as Ex. 21, potassium salt
[3] = AII 0.05 mcg/kg, 60 min post dose, listed as Ex. 21, potassium salt
[4] = AII 0.05 mcg/kg, 90 min post dose, listed as Ex. 21, potassium salt
[5] = AII 0.05 mcg/kg, 120 min post dose, listed as Ex. 21, potassium salt
[6] = AII 0.05 mcg/kg, 180 min post dose, listed as Ex. 21, potassium salt
[7] = AII 0.05 mcg/kg, 240 min post dose, listed as Ex. 21, potassium salt
[8] = AII 0.05 mcg/kg, 300 min post dose, listed as Ex. 21, potassium salt
[9] = AII 0.1 mcg/kg, 30 min post dose
[10] = AII 0.1 mcg/kg, 30 min post dose, listed as Ex. 21, potassium salt
[11] = AII 0.1 mcg/kg, 60 min post dose, listed as Ex. 21, potassium salt
[12] = AII 0.1 mcg/kg, 90 min post dose, listed as Ex. 21, potassium salt
[13] = AII 0.1 mcg/kg, 120 min post dose, listed as Ex. 21, potassium salt
[14] = AII 0.1 mcg/kg, 180 min post dose, listed as Ex. 21, potassium salt
[15] = AII 0.1 mcg/kg, 240 min post dose, listed as Ex. 21, potassium salt
[16] = AII 0.1 mcg/kg, 300 min post dose, listed as Ex. 21, potassium salt

SMILES: CCCCc1nc2ccnn2c(=O)n1Cc1ccc(-c2ccccc2-c2nn[nH]n2)cc1 [Example 21, 2-Butyl-3-[[2'-(1H-tetrazol-5-yl)-[[1,1'-biphenyl]-4-yl]methyl]-pyrazolo[1,5-a]-1,3,5-triazin-4(3H)-one potassium salt]
- Response After AII [1]: 220
- Change [2]: 5 and 25
- Response After AII [2]: 225
- Control Before AII [2]: 215 and 200
- % Inhibition [1]: 65%
- Average Change [1]: 15
- Change [3]: 25 and 40
- Response After AII [3]: 235 and 250
- Control Before AII [3]: 210
- % Inhibition [3]: 24%
- Average Change [3]: 32.5
- Change [4]: 20
- Response After AII [4]: 230 and 260
- Control Before AII [4]: 210 and 240
- % Inhibition [4]: 53%
- Average Change [4]: 20
- Control Before AII (AII 0.05 mcg/kg, 120 min post dose): 220
- Change [5]: 20 and 30
- Response After AII [5]: 240 and 255
- Control Before AII [5]: 225
- % Inhibition [5]: 41%
- Average Change [5]: 25
- Change [6]: 21 and 45
- Response After AII [6]: 245 and 255
- Control Before AII [6]: 224 and 210
- % Inhibition [6]: 22%
- Average Change [6]: 33
- Change [7]: 25 and 35
- Response After AII [7]: 245 and 250
- Control Before AII [7]: 220 and 215
- % Inhibition [7]: 29%
- Average Change [7]: 30
- Change [8]: 31 and 40
- Response After AII [8]: 245 and 250
- Control Before AII [8]: 214 and 210
- % Inhibition [8]: 16%
- Average Change [8]: 35.5
- Response After AII [9]: 230
- Change [10]: 15 and 30
- Response After AII [10]: 225
- Control Before AII [10]: 210 and 200
- % Inhibition [9]: 58%
- Average Change [9]: 22.5
- Change [11]: 20 and 30
- Response After AII [11]: 245 and 255
- Control Before AII [11]: 225
- % Inhibition [11]: 53%
- Average Change [11]: 25
- Change [12]: 30 and 35
- Response After AII [12]: 245 and 260
- Control Before AII [12]: 215 and 225
- % Inhibition [12]: 39%
- Average Change [12]: 32.5
- Change [13]: 35 and 40
- Response After AII [13]: 255 and 265
- Control Before AII [13]: 220 and 225
- % Inhibition [13]: 30%
- Average Change [13]: 37.5
- Control Before AII (AII 0.1 mcg/kg, 180 min post dose): 240
- Change [14]: 30 and 35
- Response After AII [14]: 255 and 275
- Control Before AII [14]: 225
- % Inhibition [14]: 39%
- Average Change [14]: 32.5
- Change [15]: 40
- Response After AII [15]: 265 and 260
- Control Before AII [15]: 225 and 220
- % Inhibition [15]: 25%
- Average Change [15]: 40
- Change [16]: 50 and 60
- Response After AII [16]: 265 and 280
- Control Before AII [16]: 215 and 220
- % Inhibition [16]: -3%
- Average Change [16]: 55
